Data: patent publication US10899751B2, “Compounds, compositions, and methods for increasing CFTR activity” (Proteostasis Therapeutics, Inc., priority 2016, dated 2021)

Target: T1, ΔF508-CFTR (Homo sapiens, UniProt P13569, DEL508-508)
T1 construct: Primary lung epithelial cells homozygous for the Cystic Fibrosis-causing ΔF508 mutation were differentiated for a minimum of 4 weeks; endogenous in cells; host or cells: primary lung (bronchial) epithelial cells (hBE) homozygous for ΔF508, differentiated at an air-liquid interface
Assay: hBE equivalent current (Ieq) assay
Assay type: cell-based
Conditions: primary lung epithelial cells homozygous for ΔF508, 24 h treatment; for Ieq Activity: compound at its EC50 and VX-809 at 3 uM; for EC50: AUC of equivalent chloride current after forskolin plus VX-770
Method: Primary lung epithelial cells homozygous for the Cystic Fibrosis-causing ΔF508 mutation were differentiated for a minimum of 4 weeks in an air-liquid interface on Costar 24 well HTS filter plates prior to the equivalent current (Ieq) measurements. Cells were apically mucus-washed for 30 minutes 24 h prior to treatment with compounds. The basolateral media was removed and replaced with media containing the compound of interest diluted to its final concentration from DMSO stocks. Treated cells were incubated at 37° C. and 5% CO2 for 24 hours. At the end of the treatment period, the media was changed to the Ieq experimental solution for 30 minutes before the experiment and plates are maintained in a CO2-free incubator during this period. The plates containing the cells were then placed in pre-warmed heating blocks at 36° C.±0.5 for 15 minutes before measurements are taken. The transepithelial voltage (VT) and conductance (GT) were measured using a custom 24 channel current clamp (TECC-24) with 24 well electrode manifold. The Ieq assay measurements were made following additions with standardized time periods: • 1. The baseline VT and GT values were measured for approximately 20 minutes. • 2. Benzamil was added to block ENaC for 15 minutes. • 3. Forskolin plus VX-770 were added to maximally activate ΔF508-CFTR for 27 minutes. • 4. Bumetanide was added to inhibit the NaK2Cl cotransporter and shut-off secretion of chloride.
The activity data captured was the area under the curve (AUC) for the traces of the equivalent chloride current. The AUC was collected from the time of the forskolin/VX-770 addition until the inhibition by bumetanide addition. Correction in response to compound treatment was scored as the increase in the AUC for compound-treated samples over that of vehicle-treated samples.
(** indicates activity ≥200% of VX-809 (3 uM) with compound at its EC50 and VX-809 at 3 uM; * indicates activity 100-200% of VX-809 (3 uM) with compound at its EC50 and VX-809 at 3 uM. ##indicates activity <100% of VX-809 (3 uM) with compound at its EC50 and VX-809 at 3 uM. In Table 2, an Ieq EC50 value of “A” indicates the compound's EC50 is ≤1 μM; an Ieq EC50 value of “B” indicates the compound's EC50 is between 1 and 10 μM; an Ieq EC50 value of “C” indicates the compound's EC50 is ≥10 μM.

T1 sequence (P13569 with tags, fused parts or gaps DEL508-508): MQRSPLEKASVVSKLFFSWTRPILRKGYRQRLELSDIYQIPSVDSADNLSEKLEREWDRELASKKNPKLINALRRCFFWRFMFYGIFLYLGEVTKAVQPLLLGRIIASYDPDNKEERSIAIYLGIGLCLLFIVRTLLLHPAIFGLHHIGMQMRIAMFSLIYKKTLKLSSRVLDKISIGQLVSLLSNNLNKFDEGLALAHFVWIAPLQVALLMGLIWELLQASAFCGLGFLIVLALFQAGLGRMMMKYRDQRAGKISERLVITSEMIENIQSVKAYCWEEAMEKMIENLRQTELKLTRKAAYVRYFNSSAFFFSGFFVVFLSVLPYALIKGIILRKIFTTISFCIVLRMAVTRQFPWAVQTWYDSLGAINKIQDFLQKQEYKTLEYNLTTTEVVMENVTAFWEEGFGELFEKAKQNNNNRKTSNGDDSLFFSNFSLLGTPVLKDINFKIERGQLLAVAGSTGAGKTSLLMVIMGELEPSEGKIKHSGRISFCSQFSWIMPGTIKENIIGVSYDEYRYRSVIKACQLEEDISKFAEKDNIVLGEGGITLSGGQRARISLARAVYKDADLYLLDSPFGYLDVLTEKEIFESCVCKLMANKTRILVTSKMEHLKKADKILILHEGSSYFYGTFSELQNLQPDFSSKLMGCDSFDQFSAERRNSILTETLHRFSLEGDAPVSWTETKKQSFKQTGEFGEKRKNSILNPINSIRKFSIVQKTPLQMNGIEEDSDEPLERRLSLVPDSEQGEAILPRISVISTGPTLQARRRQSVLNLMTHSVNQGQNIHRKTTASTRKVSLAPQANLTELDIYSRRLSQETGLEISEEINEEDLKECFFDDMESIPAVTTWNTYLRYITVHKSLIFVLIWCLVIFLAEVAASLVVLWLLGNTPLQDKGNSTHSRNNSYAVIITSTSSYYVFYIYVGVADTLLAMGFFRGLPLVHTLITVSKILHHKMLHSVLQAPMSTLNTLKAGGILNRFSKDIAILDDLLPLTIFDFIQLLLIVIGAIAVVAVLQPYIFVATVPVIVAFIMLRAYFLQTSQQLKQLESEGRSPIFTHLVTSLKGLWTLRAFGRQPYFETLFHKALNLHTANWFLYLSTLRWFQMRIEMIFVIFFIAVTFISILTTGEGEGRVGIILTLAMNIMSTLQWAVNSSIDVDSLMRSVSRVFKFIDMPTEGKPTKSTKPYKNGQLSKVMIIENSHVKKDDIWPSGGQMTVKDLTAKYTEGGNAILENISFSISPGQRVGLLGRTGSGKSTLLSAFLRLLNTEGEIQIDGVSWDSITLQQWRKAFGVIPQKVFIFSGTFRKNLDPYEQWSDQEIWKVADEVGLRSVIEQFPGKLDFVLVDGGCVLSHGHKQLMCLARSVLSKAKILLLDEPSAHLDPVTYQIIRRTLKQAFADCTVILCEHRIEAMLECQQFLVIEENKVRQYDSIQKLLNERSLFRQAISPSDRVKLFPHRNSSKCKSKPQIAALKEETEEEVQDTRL

Row | Compound | Ieq Activity | EC50 [nM]
1 | O=C(NCCCC(=O)N1CCC1)c1cc(-c2ccc(F)cc2)on1 [Example 1, N-(4-(Azetidin-1-yl)-4-oxobutyl)-5-(4-fluorophenyl)isoxazole-3-carboxamide] | ** (** indicates activity ≥200% of VX-809 (3 uM) with compound at its EC50 and VX-809 at 3 uM) | ≤ 1000
2 | O=C(N[C@H]1C[C@H](C(=O)N2CCC2)C1)c1cc(-c2ccccc2)on1 [Example 2, N-((1r,3r)-3-(Azetidine-1-carbonyl)cyclobutyl)-5-phenylisoxazole-3-carboxamide] | ** (** indicates activity ≥200% of VX-809 (3 uM) with compound at its EC50 and VX-809 at 3 uM) | ≤ 1000
3 | O=C(NCCCC(=O)N1CCC1)c1cc(-c2ccccc2)no1 [Example 3, N-(4-(Azetidin-1-yl)-4-oxobutyl)-3-phenylisoxazole-5-carboxamide] | * (* indicates activity 100-200% of VX-809 (3 uM) with compound at its EC50 and VX-809 at 3 uM) | 1000 to 10000
4 | O=C(N[C@H]1C[C@H](C(=O)N2CCC2)C1)c1cc(-c2ccccc2)no1 [Example 4, N-((1r,3r)-3-(Azetidine-1-carbonyl)cyclobutyl)-3-phenylisoxazole-5-carboxamide] | ** (** indicates activity ≥200% of VX-809 (3 uM) with compound at its EC50 and VX-809 at 3 uM) | 1000 to 10000
5 | O=C(N[C@H]1C[C@H](C(=O)N2CCC2)C1)c1cc(-c2ccc(F)cc2)on1 [Example 6] | * (* indicates activity 100-200% of VX-809 (3 uM) with compound at its EC50 and VX-809 at 3 uM) | ≤ 1000
6 | O=C(NCCCCC(=O)N1CCC1)c1cc(-c2ccccc2)on1 [Example 8] | ## (##indicates activity <100% of VX-809 (3 uM) with compound at its EC50 and VX-809 at 3 uM) | ≤ 1000
7 | CN1CCN(C(=O)CCCNC(=O)c2cc(-c3ccc(F)cc3)on2)CC1 [Example 10] | ## (##indicates activity <100% of VX-809 (3 uM) with compound at its EC50 and VX-809 at 3 uM) | ≤ 1000
8 | CN1CCN(C(=O)CCCCNC(=O)c2cc(-c3ccccc3)on2)CC1 [Example 11] | ## (##indicates activity <100% of VX-809 (3 uM) with compound at its EC50 and VX-809 at 3 uM) | ≤ 1000
9 | O=C(NCCC(=O)N1CCC1)c1cc(-c2ccccc2)on1 [Example 12] | * (* indicates activity 100-200% of VX-809 (3 uM) with compound at its EC50 and VX-809 at 3 uM) | ≤ 1000
